Assay results: PMC11079024, “Identification of a family of species-selective complex I inhibitors as potential anthelmintics” (Nature Communications, 2024)
Where “and” joins values, the source holds several entries; their conditions need not be identical. Identical values can stand only once. Like-named read-outs stand apart in the source and are kept apart here.

Molecular target: C. elegans (N2) complex I (NADH:ubiquinone oxidoreductase) (Caenorhabditis elegans, UniProt P24887+Q93873+Q94360)
Assay: biochemical
Format: biochemical
Conditions: for Log IC50 C. elegans complex I: log10 of IC50 in µM
Summary of the method: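 Activity expressed as percent of solvent control. Complex I rate came from DCIP reduction at 600 nm (initial linear slope, 15 min) with NADH and decylubiquinone as substrates, plus antimycin A and KCN, in pH 7.5 KPi/BSA buffer. Isolated, thrice freeze-thawed mitochondria used at 0.2 mg/mL.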

[1] = in vitro complex I dose response on C. elegans mitochondria, average of at least two biological replicates, fit in R (DRC), read-out: IC50 C. elegans complex I
[2] = wild-type (N2) mitochondria, read-out: C. elegans Complex I IC50
[3] = wild-type C. elegans mitochondria, estimated from fitted dose-response curves, read-out: C. elegans Complex I IC50

Chain of C. elegans (N2) complex I (NADH:ubiquinone oxidoreductase) (Q94360 17-199): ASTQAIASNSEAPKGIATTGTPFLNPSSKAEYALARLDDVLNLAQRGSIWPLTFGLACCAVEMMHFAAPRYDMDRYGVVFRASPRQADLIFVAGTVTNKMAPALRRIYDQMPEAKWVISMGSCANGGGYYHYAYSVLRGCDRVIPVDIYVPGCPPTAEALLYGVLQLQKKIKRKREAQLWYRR
Chain of C. elegans (N2) complex I (NADH:ubiquinone oxidoreductase) (P24887 whole entry): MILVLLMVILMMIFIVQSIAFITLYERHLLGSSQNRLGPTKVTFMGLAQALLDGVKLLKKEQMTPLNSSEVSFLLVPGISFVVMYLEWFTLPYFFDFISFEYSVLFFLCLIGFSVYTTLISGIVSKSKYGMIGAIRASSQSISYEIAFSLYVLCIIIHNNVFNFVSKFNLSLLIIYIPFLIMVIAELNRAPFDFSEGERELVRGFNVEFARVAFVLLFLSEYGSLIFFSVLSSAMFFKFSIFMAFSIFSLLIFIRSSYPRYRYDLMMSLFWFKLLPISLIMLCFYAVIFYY
Chain of C. elegans (N2) complex I (NADH:ubiquinone oxidoreductase) (Q93873 31-482): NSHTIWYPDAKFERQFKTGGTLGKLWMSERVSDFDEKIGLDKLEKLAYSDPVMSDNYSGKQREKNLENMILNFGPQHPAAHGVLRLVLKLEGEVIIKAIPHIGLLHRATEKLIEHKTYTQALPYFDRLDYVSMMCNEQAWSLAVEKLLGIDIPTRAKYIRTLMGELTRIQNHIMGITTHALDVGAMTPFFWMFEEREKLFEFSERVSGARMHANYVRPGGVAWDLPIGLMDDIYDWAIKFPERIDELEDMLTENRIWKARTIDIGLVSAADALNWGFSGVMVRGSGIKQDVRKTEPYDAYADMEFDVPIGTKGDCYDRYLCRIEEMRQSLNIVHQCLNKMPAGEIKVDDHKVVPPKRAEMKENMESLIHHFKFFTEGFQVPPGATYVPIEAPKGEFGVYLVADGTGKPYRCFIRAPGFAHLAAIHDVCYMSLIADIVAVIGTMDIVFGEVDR

Compound: Cc1nc2ccccc2n1Cc1ccc(Cl)cc1 [STK697993]
- remaining activity at 0.0001 µM (C. elegans mitochondria, 0.0001 µM, Mean, read-out: in vitro complex I activity relative to solvent control): 93.5%
- remaining activity at 0.0001 µM (C. elegans mitochondria, 0.0001 µM, single replicate, read-out: in vitro complex I activity relative to solvent control): 90.1%
- remaining activity at 0.0005 µM (C. elegans mitochondria, 0.0005 µM, Mean, read-out: in vitro complex I activity relative to solvent control): 93.4%
- remaining activity at 0.0005 µM (C. elegans mitochondria, 0.0005 µM, single replicate, read-out: in vitro complex I activity relative to solvent control): 89.1%
- remaining activity at 0.001 µM (C. elegans mitochondria, 0.001 µM, Mean, read-out: in vitro complex I activity relative to solvent control): 92.2%
- remaining activity at 0.0025 µM (C. elegans mitochondria, 0.0025 µM, Mean, read-out: in vitro complex I activity relative to solvent control): 89.9%
- remaining activity at 0.005 µM (C. elegans mitochondria, 0.005 µM, Mean, read-out: in vitro complex I activity relative to solvent control): 93.8%
- remaining activity at 0.013 µM (C. elegans mitochondria, 0.013 µM, Mean, read-out: in vitro complex I activity relative to solvent control): 89.4%
- remaining activity at 0.025 µM (C. elegans mitochondria, 0.025 µM, Mean, read-out: in vitro complex I activity relative to solvent control): 79.6%
- remaining activity at 0.025 µM (C. elegans mitochondria, 0.025 µM, single replicate, read-out: in vitro complex I activity relative to solvent control): 81.1%
- remaining activity at 0.063 µM (C. elegans mitochondria, 0.063 µM, Mean, read-out: in vitro complex I activity relative to solvent control): 59.3%
- remaining activity at 0.063 µM (C. elegans mitochondria, 0.063 µM, single replicate, read-out: in vitro complex I activity relative to solvent control): 58.9%
- remaining activity at 0.125 µM (C. elegans mitochondria, 0.125 µM, Mean, read-out: in vitro complex I activity relative to solvent control): 46.1%
- remaining activity at 0.125 µM (C. elegans mitochondria, 0.125 µM, single replicate, read-out: in vitro complex I activity relative to solvent control): 47%
- remaining activity at 0.313 µM (C. elegans mitochondria, 0.313 µM, Mean, read-out: in vitro complex I activity relative to solvent control): 24.1%
- remaining activity at 0.313 µM (C. elegans mitochondria, 0.313 µM, single replicate, read-out: in vitro complex I activity relative to solvent control): 23.6%
- remaining activity at 0.625 µM (C. elegans mitochondria, 0.625 µM, Mean, read-out: in vitro complex I activity relative to solvent control): 15.5%
- remaining activity at 0.625 µM (C. elegans mitochondria, 0.625 µM, single replicate, read-out: in vitro complex I activity relative to solvent control): 16.8%
- remaining activity at 1.5 µM (C. elegans mitochondria, 1.5 µM, Mean, read-out: in vitro complex I activity relative to solvent control): 6.88%
- remaining activity at 3 µM (C. elegans mitochondria, 3 µM, Mean, read-out: in vitro complex I activity relative to solvent control): 4.54%
- remaining activity at 15 µM (C. elegans mitochondria, 15 µM, Mean, read-out: in vitro complex I activity relative to solvent control): 3.15%
- remaining activity at 37.5 µM (C. elegans mitochondria, 37.5 µM, Mean, read-out: in vitro complex I activity relative to solvent control): 1.66%
- remaining activity at 75 µM (C. elegans mitochondria, 75 µM, Mean, read-out: in vitro complex I activity relative to solvent control): 1.29%
- remaining activity at 0.0001 µM (dose 0.0001 µM, wild-type C. elegans, mean of replicates, read-out: in vitro complex I activity relative to solvent control, Mean): 93.5%
- in vitro complex I activity relative to solvent control, individual replicate (dose 0.0001 µM, wild-type C. elegans, single replicate): 99.582% and 83.147% and 101.146%
- remaining activity at 0.0001 µM (dose 0.0001 µM, wild-type C. elegans, single replicate, read-out: in vitro complex I activity relative to solvent control, individual replicate): 90.1%
- remaining activity at 0.0005 µM (dose 0.0005 µM, wild-type C. elegans, mean of replicates, read-out: in vitro complex I activity relative to solvent control, Mean): 93.4%
- in vitro complex I activity relative to solvent control, individual replicate (dose 0.0005 µM, wild-type C. elegans, single replicate): 96.982% and 84.926% and 102.628%
- remaining activity at 0.0005 µM (dose 0.0005 µM, wild-type C. elegans, single replicate, read-out: in vitro complex I activity relative to solvent control, individual replicate): 89.1%
- remaining activity at 0.001 µM (dose 0.001 µM, wild-type C. elegans, mean of replicates, read-out: in vitro complex I activity relative to solvent control, Mean): 92.2%
- in vitro complex I activity relative to solvent control, individual replicate (dose 0.001 µM, wild-type C. elegans, single replicate): 93.635% and 85.360% and 84.052% and 105.930%
- remaining activity at 0.0025 µM (dose 0.0025 µM, wild-type C. elegans, mean of replicates, read-out: in vitro complex I activity relative to solvent control, Mean): 89.9%
- in vitro complex I activity relative to solvent control, individual replicate (dose 0.0025 µM, wild-type C. elegans, single replicate): 94.908% and 85.958% and 78.987% and 99.629%
- remaining activity at 0.005 µM (dose 0.005 µM, wild-type C. elegans, mean of replicates, read-out: in vitro complex I activity relative to solvent control, Mean): 93.8%
- in vitro complex I activity relative to solvent control, individual replicate (dose 0.005 µM, wild-type C. elegans, single replicate): 110.821% and 90.887% and 82.153% and 91.307%
- remaining activity at 0.013 µM (dose 0.013 µM, wild-type C. elegans, mean of replicates, read-out: in vitro complex I activity relative to solvent control, Mean): 89.4%
- in vitro complex I activity relative to solvent control, individual replicate (dose 0.013 µM, wild-type C. elegans, single replicate): 104.424% and 80.938% and 77.600% and 94.576%
- remaining activity at 0.025 µM (dose 0.025 µM, wild-type C. elegans, mean of replicates, read-out: in vitro complex I activity relative to solvent control, Mean): 79.6%
- in vitro complex I activity relative to solvent control, individual replicate (dose 0.025 µM, wild-type C. elegans, single replicate): 79.265% and 72.113% and 85.782%
- remaining activity at 0.025 µM (dose 0.025 µM, wild-type C. elegans, single replicate, read-out: in vitro complex I activity relative to solvent control, individual replicate): 81.1%
- remaining activity at 0.063 µM (dose 0.063 µM, wild-type C. elegans, mean of replicates, read-out: in vitro complex I activity relative to solvent control, Mean): 59.3%
- in vitro complex I activity relative to solvent control, individual replicate (dose 0.063 µM, wild-type C. elegans, single replicate): 58.500% and 52.939% and 67.015%
- remaining activity at 0.063 µM (dose 0.063 µM, wild-type C. elegans, single replicate, read-out: in vitro complex I activity relative to solvent control, individual replicate): 58.9%
- remaining activity at 0.125 µM (dose 0.125 µM, wild-type C. elegans, mean of replicates, read-out: in vitro complex I activity relative to solvent control, Mean): 46.1%
- in vitro complex I activity relative to solvent control, individual replicate (dose 0.125 µM, wild-type C. elegans, single replicate): 44.996% and 42.086% and 50.202%
- remaining activity at 0.125 µM (dose 0.125 µM, wild-type C. elegans, single replicate, read-out: in vitro complex I activity relative to solvent control, individual replicate): 47%
- remaining activity at 0.313 µM (dose 0.313 µM, wild-type C. elegans, mean of replicates, read-out: in vitro complex I activity relative to solvent control, Mean): 24.1%
- in vitro complex I activity relative to solvent control, individual replicate (dose 0.313 µM, wild-type C. elegans, single replicate): 25.635% and 20.651% and 26.550%
- remaining activity at 0.313 µM (dose 0.313 µM, wild-type C. elegans, single replicate, read-out: in vitro complex I activity relative to solvent control, individual replicate): 23.6%
- remaining activity at 0.625 µM (dose 0.625 µM, wild-type C. elegans, mean of replicates, read-out: in vitro complex I activity relative to solvent control, Mean): 15.5%
- in vitro complex I activity relative to solvent control, individual replicate (dose 0.625 µM, wild-type C. elegans, single replicate): 15.276% and 17.385% and 12.484%
- remaining activity at 0.625 µM (dose 0.625 µM, wild-type C. elegans, single replicate, read-out: in vitro complex I activity relative to solvent control, individual replicate): 16.8%
- remaining activity at 1.5 µM (dose 1.5 µM, wild-type C. elegans, mean of replicates, read-out: in vitro complex I activity relative to solvent control, Mean): 6.88%
- in vitro complex I activity relative to solvent control, individual replicate (dose 1.5 µM, wild-type C. elegans, single replicate): 4.958% and 1.160% and 6.055% and 15.327%
- remaining activity at 3 µM (dose 3 µM, wild-type C. elegans, mean of replicates, read-out: in vitro complex I activity relative to solvent control, Mean): 4.54%
- in vitro complex I activity relative to solvent control, individual replicate (dose 3 µM, wild-type C. elegans, single replicate): 0.589% and 7.541% and 4.494% and 5.523%
- remaining activity at 15 µM (dose 15 µM, wild-type C. elegans, mean of replicates, read-out: in vitro complex I activity relative to solvent control, Mean): 3.15%
- in vitro complex I activity relative to solvent control, individual replicate (dose 15 µM, wild-type C. elegans, single replicate): 6.941% and 0.000% and 2.528% and 3.137%
- remaining activity at 37.5 µM (dose 37.5 µM, wild-type C. elegans, mean of replicates, read-out: in vitro complex I activity relative to solvent control, Mean): 1.66%
- in vitro complex I activity relative to solvent control, individual replicate (dose 37.5 µM, wild-type C. elegans, single replicate): 3.595% and 0.000% and 3.039%
- remaining activity at 75 µM (dose 75 µM, wild-type C. elegans, mean of replicates, read-out: in vitro complex I activity relative to solvent control, Mean): 1.29%
- in vitro complex I activity relative to solvent control, individual replicate (dose 75 µM, wild-type C. elegans, single replicate): 0.000% and 3.223% and 1.928%
- IC50 [1]: 110 nM
- Log IC50 C. elegans complex I (C. elegans mitochondria): -0.96 µM
- IC50 [2]: 110 nM
- IC50 (wild-type (N2) mitochondria, read-out: C. elegans complex I IC50): 112 nM
- IC50 [3]: 110 nM

Compound: CCn1c(C(C)c2ccc(CC(C)C)cc2)nc2ccccc21 (stereo not drawn) [STK951902]
- IC50 [1]: 1830 nM
- Log IC50 C. elegans complex I (C. elegans mitochondria): 0.26 µM
- IC50 [2]: 1830 nM
- IC50 [3]: 1830 nM

Compound: CC(C)Cc1ccc(C(C)c2nc3ccccc3n2C(C)C)cc1 (stereo not drawn) [STK951903]
- IC50 [1]: 4200 nM
- Log IC50 C. elegans complex I (C. elegans mitochondria): 0.62 µM
- IC50 [2]: 4200 nM
- IC50 (wild-type C. elegans mitochondria, read-out: C. elegans Complex I IC50): 4200 nM

Compound: C=CCn1c(C(C)c2ccc(CC(C)C)cc2)nc2ccccc21 (stereo not drawn) [STL020755]
- IC50 [1]: 2270 nM
- Log IC50 C. elegans complex I (C. elegans mitochondria): 0.36 µM
- IC50 [2]: 2270 nM
- IC50 [3]: 2270 nM

Compound: c1ccc(CCCCCCCCCCc2nc3ccccc3[nH]2)cc1 [STL442376]
- IC50 [1]: 2330 nM
- Log IC50 C. elegans complex I (C. elegans mitochondria): 0.37 µM
- IC50 [3]: 2330 nM

Compound: Cc1ccc2nc(C(C)c3ccc(CC(C)C)cc3)[nH]c2c1 (stereo not drawn) [STL482096]
- IC50 [1]: 910 nM
- Log IC50 C. elegans complex I (C. elegans mitochondria): -0.04 µM
- IC50 [2]: 910 nM
- IC50 [3]: 910 nM

Compound: O=C(NCCc1ccc(Cl)cc1)c1ccccc1C(F)(F)F [Wact-11]
- % Activity Complex I (100 µM compound, relative to solvent control, mean (SEM)): 84.83 (1.45) %
- CI Activity (100 μM inhibitor, in vitro activity relative to solvent control, N2 C. elegans mitochondria, Mean): 84.830%
- Percent in vitro activity, Complex I (single replicate Rep1-Rep4) (100 μM of NPD compound, C. elegans mitochondria, individual biological replicates): 83.274% and 93.104% and 79.669%
- Percent in vitro activity, Complex I (Mean) (100 μM of NPD compound, C. elegans mitochondria, mean of four biological replicates): 84.830%
